Where a SMILES comes first, the peptide text is derived from it.
Columns and labels:
[1] = Apparent permeability coefficient (Papp) (Caco-2 cell monolayer); assay type: ADME, cell-based; conditions: human
[2] = Cellular permeability (Pc) (Caco-2 cell monolayer); assay type: ADME; conditions: human, read-out: Pc
Homo sapiens = organism: Homo sapiens; test: Ratio of [(apical to basal)/(basal to apical)] (Caco-2 cell monolayer); assay type: ADME

Compound	Papp [1] [×10⁻⁶ cm/s]	Papp [2] [×10⁻⁶ cm/s]	Ratio (Homo sapiens)
CCN1CCCC1CNC(=O)c1cc(S(N)(=O)=O)ccc1OC (stereo unspecified) [SULPIRIDE]	0.23	0.39	–
OC[C@H]1O[C@H](OC[C@H]2O[C@H](O[C@]3(CO)O[C@H](CO)[C@@H](O)[C@@H]3O)[C@H](O)[C@@H](O)[C@@H]2O)[C@H](O)[C@@H](O)[C@H]1O [RAFFINOSE]	0.051	0.047	1.2
OC[C@H]1O[C@@H](O[C@@H]2[C@@H](CO)O[C@](O)(CO)[C@H]2O)[C@H](O)[C@@H](O)[C@H]1O [LACTULOSE]	0.3	0.27	1.4
OC[C@@H](O)[C@@H](O)[C@H](O)[C@H](O)CO [MANNITOL]	0.11	0.19	0.89
Cc1ccccc1N1C(=O)c2cc(S(N)(=O)=O)c(Cl)cc2NC1C (stereo unspecified) [METOLAZONE]	6.2	6.1	0.64
CCCc1nn(C)c2c(=O)[nH]c(-c3cc(S(=O)(=O)N4CCN(C)CC4)ccc3OCC)nc12	48	87	0.83
CN/C(=N/CCSCc1nc[nH]c1C)NC#N [CIMETIDINE]	1.23	1.2	1.8
C=CCOc1ccccc1OCC(O)CNC(C)C (stereo unspecified) [OXPRENOLOL]	61	–	~ 1
COCCc1ccc(OCC(O)CNC(C)C)cc1 (stereo unspecified) [METOPROLOL]	64	–	1
Cc1cc(=O)n(-c2ccccc2)n1C [ANTIPYRINE]	77	215	1.1
CC(C)NCC(O)COc1cccc2[nH]ccc12 (stereo unspecified) [PINDOLOL]	36	–	~ 1
C[C@H](NC(=O)[C@@H](N)Cc1ccc(O)cc1)C(=O)N[C@@H](Cc1ccccc1)C(=O)N[C@@H](Cc1ccccc1)C(N)=O (H-YAFF-NH2)	0.04	0.022	–
NC(=O)[C@H](Cc1ccccc1)NC(=O)[C@H](Cc1ccccc1)NC(=O)[C@H](CCCN=C(N)N)NC(=O)[C@@H](N)Cc1ccc(O)cc1 (H-YRFF-NH2)	0.037	0.023	0.41
N=C(N)NC(=O)c1nc(Cl)c(N)nc1N [AMILORIDE]	0.56	0.78	–
CC(=O)Nc1ccc(OCC(O)CNC(C)C)cc1 (stereo unspecified) [PRACTOLOL]	1.8	–	~ 1
O=C(O)c1cc(/N=N/c2ccc(S(=O)(=O)Nc3ccccn3)cc2)ccc1O [SULFASALAZINE]	0.16	0.16	0.087
O=C(O)P(=O)(O)O [FOSCARNET]	0.045	0.05	0.65
C=CCc1ccccc1OCC(O)CNC(C)C (stereo unspecified) [ALPRENOLOL]	88	–	~ 1
